Results from ChEMBL document CHEMBL1201862, “PubChem BioAssay data set” (2004).
Several values for one entry are separate records, joined by “and”; a condition that tells them apart may be missing. Identical values can stand only once.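 Exposure lasted 48 hours, with cells grown in 96-well plates and compounds tested at five concentrations. GI50 = concentration required for 50% inhibition of growth.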 Activity calls are given as the source filed them. No stated cut-off is given here; in the data, active = GI50 up to about 1.1 µM and inactive = higher.

Legend:
Experiment in all cases: NCI tumour cell line growth inhibition, 48 h
[1] = tested on: NCI-H522
[2] = tested on: NCI-H460
[3] = tested on: HCC 2998
[4] = tested on: HT-29
[5] = tested on: ACHN
[6] = tested on: NCI-H226
[7] = tested on: K562
[8] = tested on: OVCAR-5
[9] = tested on: Hs-578T
[10] = tested on: EKVX
[11] = tested on: BT-549
[12] = tested on: CCRF-CEM
[13] = tested on: SK-MEL-5
[14] = tested on: OVCAR-3
[15] = tested on: NCI-H23
[16] = tested on: SW-620
[17] = tested on: A549
[18] = tested on: HL-60
[19] = tested on: A498
[20] = tested on: 786-0
[21] = tested on: M14
[22] = tested on: HOP-92
[23] = tested on: OVCAR-4
[24] = tested on: OVCAR-8
[25] = tested on: SR
[26] = tested on: MDA-MB-435
[27] = tested on: UO-31
[28] = tested on: IGROV-1
[29] = tested on: RPMI-8226
[30] = tested on: COLO 205
[31] = tested on: DU-145
[32] = tested on: HCT-116
[33] = tested on: CAKI-1
[34] = tested on: KM12
[35] = tested on: SF-539
[36] = tested on: MCF7
[37] = tested on: TK-10
[38] = tested on: SK-OV-3
[39] = tested on: SK-MEL-28
[40] = tested on: Malme-3M
[41] = tested on: LOX IMVI
[42] = tested on: UACC-257
[43] = tested on: HCT-15
[44] = tested on: SN12C
[45] = tested on: MDA-N
[46] = tested on: U-251
[47] = tested on: UACC-62
[48] = tested on: NCI/ADR-RES
[49] = tested on: RXF 393
[50] = tested on: MOLT-4
[51] = tested on: SNB-19
[52] = tested on: SF-295
[53] = tested on: PC-3
[54] = tested on: SK-MEL-2

CCOC(=O)[C@H](Cc1ccc(O)cc1)/N=C1/[C@H]2CCC[C@]1(O)[C@@](C)([N+](=O)[O-])C2
GI50 [1]: 63.7 µM (inactive)
GI50 [2]: > 100 µM (inactive)
GI50 [3]: > 100 µM (inactive)
GI50 [4]: > 100 µM (inactive)
GI50 [5]: > 100 µM (inactive)
GI50 [6]: > 100 µM (inactive)
GI50 [7]: > 100 µM (inactive)
GI50 [8]: > 100 µM (inactive)
GI50 [9]: > 100 µM (inactive)
GI50 [10]: > 100 µM (inactive)
GI50 [11]: > 100 µM (inactive)
GI50 [12]: > 100 µM (inactive)
GI50 [13]: > 100 µM (inactive)
GI50 [14]: > 100 µM (inactive)
GI50 [15]: > 100 µM (inactive)
GI50 [16]: > 100 µM (inactive)
GI50 [17]: > 100 µM (inactive)
GI50 [18]: > 100 µM (inactive)
GI50 [19]: > 100 µM (inactive)
GI50 [20]: > 100 µM (inactive)
GI50 [21]: > 100 µM (inactive)
GI50 [22]: > 100 µM (inactive)
GI50 [23]: > 100 µM (inactive)
GI50 [24]: > 100 µM (inactive)
GI50 [25]: > 100 µM (inactive)
GI50 [26]: > 100 µM (inactive)
GI50 [27]: > 100 µM (inactive)
GI50 [28]: > 100 µM (inactive)
GI50 [29]: > 100 µM (inactive)
GI50 [30]: > 100 µM (inactive)
GI50 [31]: > 100 µM (inactive)
GI50 [32]: > 100 µM (inactive)
GI50 [33]: > 100 µM (inactive)
GI50 [34]: > 100 µM (inactive)
GI50 [35]: > 100 µM (inactive)
GI50 [36]: > 100 µM (inactive)
GI50 [37]: > 100 µM (inactive)
GI50 [38]: > 100 µM (inactive)
GI50 [39]: > 100 µM (inactive)
GI50 [40]: > 100 µM (inactive)
GI50 [41]: > 100 µM (inactive)
GI50 [42]: > 100 µM (inactive)
GI50 [43]: > 100 µM
GI50 [44]: > 100 µM (inactive)
GI50 [45]: > 100 µM (inactive)
GI50 [46]: > 100 µM (inactive)
GI50 [47]: > 100 µM (inactive)
GI50 [48]: > 100 µM (inactive)
GI50 [49]: > 100 µM (inactive)
GI50 [50]: > 100 µM (inactive)
GI50 [51]: > 100 µM (inactive)
GI50 [52]: > 100 µM (inactive)

N#Cc1c2c(c(-c3cccs3)n(C3OC(CO)C(O)C(O)C3O)c1=S)CCc1ccccc1-2 (stereo unspecified)
GI50 [3]: 59.8 µM (inactive) and > 41.5 µM (inactive)
GI50 [6]: > 100 µM (inactive)
GI50 [7]: 6.58 µM (inactive) and 4.93 µM (inactive)
GI50 [8]: > 100 µM (inactive)
GI50 [9]: 8.97 µM (inactive) and 5.97 µM (inactive)
GI50 [10]: > 24.9 µM (inactive)
GI50 [11]: > 100 µM (inactive)
GI50 [12]: > 57.8 µM (inactive) and 36.8 µM (inactive)
GI50 [14]: 20.8 µM (inactive) and 22.5 µM (inactive)
GI50 [16]: > 100 µM (inactive)
GI50 [18]: > 20.9 µM (inactive)
GI50 [53]: 46.3 µM (inactive) and 28.4 µM (inactive)
GI50 [54]: > 100 µM (inactive) and > 56.8 µM (inactive)
GI50 [23]: 29.8 µM (inactive) and > 39 µM (inactive)
GI50 [24]: 97.5 µM (inactive) and > 87.7 µM (inactive)
GI50 [25]: 5.82 µM (inactive) and 4.76 µM (inactive)
GI50 [26]: 3.36 µM (inactive) and 3.44 µM (inactive)
GI50 [27]: 3.04 µM (inactive)
GI50 [28]: 97.9 µM (inactive) and > 86.3 µM (inactive)
GI50 [30]: 30 µM (inactive) and 40 µM (inactive)
GI50 [31]: > 100 µM (inactive)
GI50 [33]: 6.65 µM (inactive) and 6.14 µM (inactive)
GI50 [34]: > 45.6 µM (inactive) and 38.2 µM (inactive)
GI50 [36]: 5.42 µM (inactive) and 3.85 µM (inactive)
GI50 [37]: > 29 µM (inactive) and > 20.8 µM (inactive)
GI50 [38]: 7.67 µM (inactive) and 7.45 µM (inactive)
GI50 [39]: > 100 µM (inactive)
GI50 [40]: 66.2 µM (inactive) and 35.6 µM (inactive)
GI50 [41]: > 22.3 µM (inactive) and > 22.2 µM (inactive)
GI50 [42]: > 43.8 µM (inactive) and > 51.2 µM (inactive)
GI50 [43]: 7.03 µM and 6.32 µM
GI50 [44]: > 26.7 µM (inactive) and > 21.7 µM (inactive)
GI50 [45]: 6.4 µM (inactive) and 4.23 µM (inactive)
GI50 [46]: 37.2 µM (inactive) and 21.4 µM (inactive)
GI50 [47]: 5.64 µM (inactive) and 7.8 µM (inactive)
GI50 [49]: 24.3 µM (inactive) and 23 µM (inactive)
GI50 [50]: 8.32 µM (inactive) and 14.3 µM (inactive)
GI50 [51]: > 100 µM (inactive) and 98.2 µM (inactive)
GI50 [52]: 27.6 µM (inactive) and 48.6 µM (inactive)
